# US9556159B2, “Renin inhibitor” (MITSUBISHI TANABE PHARMA CORPORATION, priority 2012, dated 2017)
# Molecular target: T1, Recombinant human renin (Homo sapiens, UniProt P00797)
# T1 sequence (P00797 67-406): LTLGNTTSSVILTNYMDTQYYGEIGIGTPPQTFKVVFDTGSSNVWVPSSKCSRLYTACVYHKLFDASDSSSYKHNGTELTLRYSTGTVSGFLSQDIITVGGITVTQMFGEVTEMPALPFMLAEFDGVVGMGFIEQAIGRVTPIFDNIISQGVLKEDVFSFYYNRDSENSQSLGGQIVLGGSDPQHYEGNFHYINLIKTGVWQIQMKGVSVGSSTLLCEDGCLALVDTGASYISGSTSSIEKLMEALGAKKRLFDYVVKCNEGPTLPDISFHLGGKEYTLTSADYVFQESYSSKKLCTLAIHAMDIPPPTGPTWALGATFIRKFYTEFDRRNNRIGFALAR
# Experiment: Inhibitory activity against human renin (fluorogenic peptide substrate)
# Type: biochemical
# Settings: 37° C. for 1 hour, read-out: IC50
# Procedure: Inhibitory Activity Against Human Renin
# A substrate of synthetic peptide (Nma-KHPFH LVIHK(Dnp)-NH2) and test compound were mixed, and fluorescence intensity was assayed using a fluorophotometer before starting an enzymatic reaction (exciting wavelength: 340 nm, measuring wavelength: 460 nm). Recombinant human renin was added and the mixture was incubated at 37° C. for 1 hour, and the fluorescence intensity was measured after the reaction using a fluorophotometer (exciting wavelength: 340 nm, measuring wavelength: 460 nm).
row,IC50,SMILES
1,4.6 nM,COC(=O)NCCCc1nc([C@@H](C)N(C(=O)[C@H]2CNCCO2)C2CC2)ccc1OC [Example 74]
2,0.7 nM,"COC(=O)NCCCn1cc([C@@H](C)N(C(=O)[C@H]2CNCCO2)C2CC2)nc1OC(C)C [Example 5, methyl (3-{4-[(1R)-1-{cyclopropyl[(2R)-morpholin-2-ylcarbonyl]amino}ethyl]-2-(propan-2-yloxy)-1H-imidazol-1-yl}propyl)carbamate]"
3,1 nM,COC(=O)NCCCn1cc([C@H](C)N(C(=O)[C@H]2CNCCO2)C2CC2)c2ccc(C)nc21 [Example 50]
4,2.4 nM,COCCCn1ncc2c(F)cc([C@@H](C)N(C(=O)[C@H]3CNCCO3)C3CC3)cc21 [Example 23]
5,1.6 nM,COCCCCn1cc([C@@H](C)N(C(=O)[C@H]2CNCCO2)C2CC2)c2ncc(C)nc21 [Example 93]

# Second part, the compound before the results:
row,SMILES,IC50
1,CCc1cc([C@@H](C)N(C(=O)[C@H]2CNCCO2)C2CC2)cc(CCCCOC)n1 [Example 112],2 nM
2,COC(=O)NCCCn1nc([C@@H](C)N(C(=O)[C@H]2CNCCO2)C2CC2)c2ccc(OC)cc21 [Example 41],0.7 nM
3,COC(=O)NCCCn1cc([C@@H](C)N(C(=O)[C@H]2CNCCO2)C2CC2)c2ncc(C)nc21 [Example 102],0.4 nM
4,COc1ccc([C@@H](C)N(C(=O)[C@H]2CNCCO2)C2CC2)cc1CCCNC(=O)C(F)(F)F [Example 67],8.9 nM
5,COC(=O)NCCCc1cc([C@@H](C)N(C(=O)[C@H]2CNCCO2)C2CC2)cc(C(C)C)n1 [Example 99],1.8 nM

# Same assay, conditions: 50% inhibitory concentration (IC50) against human renin, 37° C. for 1 hour
row,IC50,SMILES
1,1 nM,COC(=O)NCCCc1cc([C@H](C)N(C(=O)[C@H]2CNCCO2)C2CC2)cnc1C(C)C [Example 315]
2,2.3 nM,COC(=O)NCCCc1nc([C@@H](C)N(C(=O)[C@H]2CNCCO2)C2CC2)sc1-c1cccc(F)c1 [Example 400]
3,5.6 nM,COC(=O)NCCCc1cc([C@H](C)N(C(=O)[C@H]2CNC[C@@H](CN(C)C)O2)C2CC2)cc(OC)n1 [Example 321]
4,8.9 nM,CCc1cc([C@@H](C)N(C(=O)[C@H]2CNCCO2)C2CC2)nc2c1cnn2CCCOC [Example 379]
5,0.5 nM,COC(=O)NCCCc1cc([C@@H](C)N(C(=O)[C@H]2CNCCO2)C2CC2)nn1-c1ccccc1C [Example 222]
6,1 nM,COC(=O)NCCCc1cc([C@@H](C)N(C(=O)[C@H]2CNCCO2)C2CC2)sc1C#CC(C)(C)O [Example 423]
7,2.3 nM,COC(=O)NCCOc1cc([C@@H](C)N(C(=O)[C@H]2CNCCO2)C2CC2)nn1-c1ccccc1 [Example 208]
8,7 nM,C[C@@H]1CNC[C@H](C(=O)N(C2CC2)[C@H](C)c2cc(Cc3ccccc3)c(-c3ccccc3-c3nnn[nH]3)s2)O1 [Example 296]
9,0.4 nM,COC(=O)NCCCn1nc([C@@H](C)N(C(=O)[C@H]2CNCCO2)C2CC2)cc1-c1cccc(F)c1 [Example 172]
10,0.5 nM,COC(=O)NCCCc1cc([C@@H](C)N(C(=O)[C@H]2CNCCO2)C2CC2)sc1-c1cccc(F)c1O [Example 274]
11,0.4 nM,COC(=O)NCCCn1nc([C@@H](C)N(C(=O)[C@H]2CNC[C@@H](C(=O)NCc3ccccc3)O2)C2CC2)c2ccc(C)nc21 [Example 253]
12,0.5 nM,COC(=O)NCCCn1nc([C@@H](C)N(C(=O)[C@H]2CNCCO2)C2CC2)cc1C(C)C [Example 188]
13,0.4 nM,COC[C@@H]1CNC[C@H](C(=O)N(C2CC2)[C@@H](C)c2cnc(OC)c(CCCNC(=O)OC)c2)O1 [Example 310]
14,3.5 nM,COC(=O)NCCCc1nc([C@@H](C)N(C(=O)[C@H]2CNCCO2)C2CC2)nn1-c1cccc(Cl)c1 [Example 365]
15,3.2 nM,COCCOc1cc([C@H](C)N(C(=O)[C@H]2CNC[C@@H](COC)O2)C2CC2)cc(CCCNC(=O)OC)n1 [Example 384]
16,2.7 nM,C=C(c1sc([C@@H](C)N(C(=O)[C@H]2CNCCO2)C2CC2)cc1CCCNC(=O)OC)C(F)(F)F [Example 401]
17,2.8 nM,COC(=O)NCCCc1nc([C@@H](C)N(C(=O)[C@H]2CNCCO2)C2CC2)sc1-c1ccccc1C(=O)OC [Example 414]

row,IC50,SMILES
1,0.3 nM,COC[C@@H]1CNC[C@H](C(=O)N(C2CC2)[C@@H](C)c2nn(CCCNC(=O)OC)c(C3CCOCC3)c2F)O1 [Example 330]
2,3.9 nM,COC(=O)NCCCc1cc([C@@H](C)N(C(=O)[C@H]2CNCCO2)C2CC2)sc1-c1cc(C(F)(F)F)ccc1C(=O)OC [Example 262]
3,5.4 nM,COC(=O)NCCCc1cc([C@@H](C)N(C(=O)[C@H]2CNCCO2)C2CC2)nc(C2CC2)n1 [Example 374]
4,0.3 nM,COC(=O)NCCCn1cc([C@@H](C)N(C(=O)[C@H]2CNCCO2)C2CC2)nc1-c1ccccc1F [Example 168]
5,0.5 nM,COC(=O)NCCCc1cc([C@@H](C)N(C(=O)[C@H]2CNCCO2)C2CC2)nc2ccc(F)cc12 [Example 142]
6,0.3 nM,COC(=O)NCCCn1nc([C@@H](C)N(C(=O)[C@H]2CNCCO2)C2CC2)cc1-c1ccc(F)cc1 [Example 158]
7,0.7 nM,COC[C@H]1CO[C@@H](C(=O)N(C2CC2)[C@H](C)c2nn(CCCNC(=O)OC)c3nc(C)ccc23)CN1 [Example 261]
8,6.9 nM,C[C@H](c1cn(Cc2cccc(OC(F)(F)F)c2)c(-c2ccccc2)n1)N(C(=O)[C@H]1CNCCO1)C1CC1 [Example 207]
9,0.4 nM,COC(=O)NCCCc1cc([C@@H](C)N(C(=O)[C@H]2CNCCO2)C2CC2)sc1C(F)(F)F [Example 246]
10,1.2 nM,COC(=O)NCCCn1nc([C@@H](C)N(C(=O)[C@H]2CN[C@@H](COCC(F)(F)F)CO2)C2CC2)c2ccc(C)nc21 [Example 278]
11,1.7 nM,COC[C@@H]1CNC[C@H](C(=O)N(C2CC2)[C@H](C)c2nc(CCCNC(=O)OC)n(-c3cccc(Cl)c3)n2)O1 [Example 381]
12,0.3 nM,COC(=O)NCCCc1cc([C@@H](C)N(C(=O)[C@H]2CNCCO2)C2CC2)sc1-c1ccccc1NS(C)(=O)=O [Example 269]
13,4.6 nM,CCc1cc([C@@H](C)N(C(=O)[C@H]2CNCCO2)C2CC2)nc2ccccc12 [Example 212]
14,1.3 nM,COC(=O)NCCCc1cc([C@@H](C)N(C(=O)[C@H]2CNCCO2)C2CC2)sc1-c1ccccc1CNS(=O)(=O)C(F)(F)F [Example 284]
15,0.9 nM,COC(=O)NCCCc1cc([C@@H](C)N(C(=O)[C@H]2CNCCO2)C2CC2)sc1-c1cc(F)cc(F)c1O [Example 275]
16,3.5 nM,CCOc1ncc(C(C)N(C(=O)[C@H]2CNC[C@@H](C)O2)C2CC2)nc1CCCNC(=O)OC (stereo partly drawn) [Example 395]

# Second part, the compound before the results:
row,SMILES,IC50
1,COC(=O)NCCCc1cc([C@@H](C)N(C(=O)[C@H]2CNCCO2)C2CC2)sc1-c1ccc(C)nc1 [Example 228],0.4 nM
2,COCCCn1ncc2c(C)cc([C@@H](C)N(C(=O)[C@H]3CNC[C@@H](COC)O3)C3CC3)nc21 [Example 385],4.3 nM
3,CCc1nc([C@@H](C)N(C(=O)[C@H]2CNCCO2)C2CC2)cc2c1ccn2Cc1ccccc1 [Example 147],2.5 nM
4,COC(=O)NCCCc1cc([C@@H](C)N(C(=O)[C@H]2CNCCO2)C2CC2)sc1-c1ccccc1C(=O)NS(C)(=O)=O [Example 287],0.8 nM
5,COCCNc1ncc([C@@H](C)N(C(=O)[C@H]2CNCCO2)C2CC2)nc1CCCNC(=O)OC [Example 444],4.2 nM
6,COC(=O)NCCCc1cc([C@@H](C)N(C(=O)[C@H]2CNCCO2)C2CC2)cc(C2CC2)n1 [Example 129],1.3 nM
7,COC(=O)NCCCc1cc([C@@H](C)N(C(=O)[C@H]2CNC[C@@H](C)O2)C2CC2)nn1-c1ccc(C(F)(F)F)cc1 [Example 354],1.4 nM
8,COC(=O)NCCCc1cc([C@@H](C)N(C(=O)[C@H]2CNCCO2)C2CC2)sc1-c1cnc(N)nc1 [Example 412],0.6 nM
9,CCc1nc([C@H](C)N(C(=O)[C@H]2CN[C@@H](C)CO2)C2CC2)cc2c1ccn2CCCOC [Example 397],1.3 nM
10,COC(=O)NCCCn1nc([C@@H](C)N(C(=O)[C@H]2CNCCO2)C2CC2)c2c1CCCC2 [Example 189],0.9 nM
11,COC(=O)NCCCn1nc([C@@H](C)N(C(=O)[C@H]2CNCCO2)C2CC2)cc1-c1cccnc1 [Example 186],0.4 nM
12,CCCCCn1cc([C@@H](C)N(C(=O)[C@H]2CNCCO2)C2CC2)nc1-c1ccccc1 [Example 200],4.5 nM
13,COC(=O)NCCCc1cc([C@@H](C)N(C(=O)[C@H]2CN[C@@H](CF)CO2)C2CC2)nn1-c1ccc(F)cc1 [Example 372],6 nM
14,COC(=O)NCCCn1cc([C@@H](C)N(C(=O)[C@H]2CNCCO2)C2CC2)nc1C(C)(C)C [Example 215],0.5 nM
15,COC(=O)NCCCc1nc([C@@H](C)N(C(=O)[C@H]2CNCCO2)C2CC2)sc1-c1ccnn1C [Example 415],0.6 nM
16,COCC(C)Oc1ncc(C(C)N(C(=O)C2CNCCO2)C2CC2)nc1CCCNC(=O)OC (stereo not drawn) [Example 436],2.2 nM
17,COC(=O)NCCCc1nc([C@@H](C)N(C(=O)[C@H]2CNCCO2)C2CC2)cnc1O[C@@H]1CCOC1 [Example 433],5.3 nM
18,COC(=O)NCCCc1cc([C@@H](C)N(C(=O)[C@H]2CNCCO2)C2CC2)sc1-c1ccccc1CNS(=O)(=O)CC(F)(F)F [Example 286],0.4 nM
19,COC(=O)NC/C=C/c1cc([C@@H](C)N(C(=O)[C@H]2CN[C@@H](C)CO2)C2CC2)nn1-c1ccccc1 [Example 358],5.7 nM
20,COC(=O)NCCCc1nc([C@H](C)N(C(=O)[C@H]2CNCCO2)C2CC2)sc1-c1ccc(F)cc1 [Example 402],2.3 nM
